pKi: −log10 of the molar value. Positions of bridges follow the written chain, without caps; N, C: chain ends. Residues, ends and D or L forms follow the SMILES beside them.
Key:
[1] = target: T1, human Growth Hormone Receptor (hGHR) (Homo sapiens, UniProt P10912); assay: Growth Hormone proliferation assay (hGH-stimulated BaF3 cell proliferation, MTT); type: cell-based; settings: inhibition of BaF3 cell proliferation in response to 0.5 ng/mL hGH; read-out: calculated Ki
T1 construct: expressed in transfected cells; host or cells: BaF-B03 (BaF3) pro-B cells
T1 sequence (P10912 19-638): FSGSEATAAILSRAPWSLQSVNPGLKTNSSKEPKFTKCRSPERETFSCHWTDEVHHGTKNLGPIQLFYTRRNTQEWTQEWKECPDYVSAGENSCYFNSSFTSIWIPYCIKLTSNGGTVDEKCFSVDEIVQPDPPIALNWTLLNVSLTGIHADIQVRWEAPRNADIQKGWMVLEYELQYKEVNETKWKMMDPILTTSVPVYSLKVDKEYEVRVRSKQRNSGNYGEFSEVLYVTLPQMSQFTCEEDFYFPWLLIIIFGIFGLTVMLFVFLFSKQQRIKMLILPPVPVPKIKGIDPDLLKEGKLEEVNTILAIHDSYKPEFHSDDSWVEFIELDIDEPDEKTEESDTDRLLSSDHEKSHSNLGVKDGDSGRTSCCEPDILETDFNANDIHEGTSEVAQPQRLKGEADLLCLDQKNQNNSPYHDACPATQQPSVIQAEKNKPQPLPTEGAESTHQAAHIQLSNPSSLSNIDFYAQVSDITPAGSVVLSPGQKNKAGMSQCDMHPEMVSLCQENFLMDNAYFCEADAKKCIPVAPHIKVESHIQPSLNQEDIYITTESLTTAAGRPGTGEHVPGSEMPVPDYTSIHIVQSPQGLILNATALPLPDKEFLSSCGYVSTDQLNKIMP
Method: SCY01 was tested for biological function by bioassay using the BaF3 cell line, which cells normally respond to GH. SCY01 was assayed at various concentrations to check its ability to inhibit BaF3 cell proliferation in response to either 0.5 ng/mL hGH, or as a control, 50 Units/mL IL-3.
BaF-B03 cells (a pro B cell line) that stably express the human Growth Hormone Receptor (hGHR) are used in this assay since they are able to elicit a GH-specific response at concentrations as low as 0.1 ng/mL hGH (4.54 pM). These cells also endogenously express the IL3 receptor and require IL3 or GM-CSF to survive in culture. The assay is based on that of Mossman, 1983, J. Immunol. Meth. 65 55, and involves the following procedure:— • (i) culture cells in RPMI-1640 medium supplemented with 10% (v/v) foetal bovine serum (FBS) and 100 units/mL IL3 under 5% CO2 at 37° C. Allow the culture to reach mid-log growth phase; • (ii) centrifuge cells at 500×g and wash with PBS to remove IL3 from the culture medium. Repeat the centrifugation and resuspend in 1 mL of RPMI-1640 plus 0.5% (v/v) FBS. […] Allow plate to rest in the dark for 5 minutes before reading; • (x) read plate at 595 nm on a microplate reader. Values obtained are directly proportional to cell number (as measured by mitochondrial dehydrogenase levels).

[2] = Blood serum stability test (RP-HPLC); type: in vitro ADME; settings: 37° C.
From the text: Preliminary studies evaluated the bioavailability of SCY01 by exposing it to a variety of proteases (trypsin, chymotrypsin and pepsin) and blood serum proteins as described in MATERIALS AND METHODS. The results of the blood serum stability test are presented in Table 2, and the results of the enzyme stability tests are presented in Table 3. […] Thus emphasising the favourable chemical characteristics of disulfide-rich proteins.
Blood was collected in heparinised tubes by venapuncture. The blood was centrifuged at 5000 rpm for 20 mins and the serum decanted. The blood serum was stored at −20° C. A sample of the blood serum (900 μL) was incubated with 100 μL of the stock peptide solution (1 mg/mL in H2O) at 37° C. and aliquots (100 μL) removed at the required time. A solution of 50% CH3CN 0.1% TFA was added to precipitate the blood serum proteins and centrifuged at 13000 rpm for 5 mins. A sample of this solution (100 μL) was analysed by RP-HPLC (Vydac C18 218TP54 250×4.1 mm id 1%/min gradient H2O/CH3CN 0.1% TFA) to detect peptide digestion.

[3] = tested on: α-chymotrypsin; assay: Enzyme stability test, chymotrypsin; type: in vitro ADME; settings: chymotrypsin 5% w:v, NH4HCO3 pH 8.3, 37° C.
Method: To the stock peptide solution (100 μL) was added 900 μL NH4HCO3 (pH 8.3). Chymotrypsin was added to 5% w:v and incubated at 37° C. Aliquots were removed at 0 hr, 1 hr and 24 hrs and analysed by RP HPLC.

[4] = tested on: trypsin; assay: Enzyme stability test, trypsin; type: in vitro ADME; settings: trypsin 5% w:v, NH4HCO3 pH 8.3, 37° C.
Method: To the peptide solution (NH4HCO3, pH 8.3, 0.87 mg/mL) was added trypsin (5% w:v). Samples were incubated at 37° C. and aliquots removed at 0, 1, 3 and 18 hrs and analysed by RP-HPLC as above.

[5] = tested on: pepsin; assay: Enzyme stability test, pepsin; type: in vitro ADME; settings: pepsin 1% w:v, pH 2.2, 37° C.
Method: To the stock peptide solution (100 μL) was added H2O (800 μL) and 0.1 M HCl (100 μL) to pH 2.2. Pepsin was added to give a 1% w:v solution and incubated at 37° C. Aliquots were removed at 0 h, 1 h and 24 hrs and analysed by RP-HPLC.

CC[C@H](C)[C@@H]1NC(=O)[C@@H]2CSSC[C@H](NC(=O)[C@H](Cc3ccccc3)NC(=O)[C@H](C)N)C(=O)N[C@@H](CC(N)=O)C(=O)N[C@@H](CC(C)C)C(=O)N[C@@H](CCCNC(=N)N)C(=O)N[C@@H](CCCCN)C(=O)N[C@H]3CSSC[C@H](NC(=O)[C@H](CCCCN)NC(=O)[C@H](CC(=O)O)NC(=O)CNC1=O)C(=O)N[C@@H](CCC(=O)O)C(=O)N[C@H](C(=O)N[C@H](C(=O)N[C@@H](CCCCN)C(N)=O)C(C)C)CSSC[C@H](NC(=O)[C@H](CCCCN)NC(=O)[C@H](CC(=O)O)NC(=O)[C@H](CCC(N)=O)NC3=O)C(=O)N[C@@H](CCC(=O)O)C(=O)N[C@@H]([C@@H](C)O)C(=O)N[C@@H](Cc1ccccc1)C(=O)NCC(=O)N[C@@H](CC(C)C)C(=O)N[C@@H](CC(C)C)C(=O)NCC(=O)N[C@@H](CCCCN)C(=O)N2 [SCY01] (H-AFCNLRKCQDKCETFGLLGKCIGDKCECVK-NH2; disulfide 3-21, 8-26, 12-28)
pKi [1]: ~3.70 | Blood serum stability test result, 0 hr ([2]; 0 hr): stable | Blood serum stability test result, 1 hr ([2]; 1 hr): stable | Blood serum stability test result, 24 hrs ([2]; 24 hrs): stable | Enzyme stability test result, α-chymotrypsin [3]: Stable over 18 hrs | Enzyme stability test result, trypsin [4]: Stable over 18 hrs | Enzyme stability test result, pepsin [5]: Stable over 18 hrs

Source: patent publication US7092825B1, “Protein engineering” (The University of Queensland, priority 1998, dated 2006)
